Assay results published in patent EP0374249A1, “METHOD OF STERILIZING PLANT POLLEN” (VSESOJUZNY NAUCHNO-ISSLEDOVATELSKY INST. SELSKOKHOZYAISTV. …, priority 1988, dated 1989).

Tests used:
[1] = test system: tetraploidem Roggen Sorte Belta; assay: Field test of pollen sterilisation, tetraploid rye Belta; type: in vivo; conditions: 1% aqueous emulsion, 10 kg/ha; for Prozentsatz der Sterilität / Anzahl von Körnern der Ähre bei freier Bestäubung / Anzahl von Körnern der Ähre im Isolator: period V of organogenesis; for Anzahl von Körnern der Ähre bei freier Bestäubung: free pollination; for Anzahl von Körnern der Ähre im Isolator: isolated ears; for Prozentsatz des Ansetzens von Körnern bei freier Bestäubung: period V, non-isolated control ears = 100%
Source text: (§1) Die gametozide Aktivität der erfindungsgemässen Sterilisationsmittel war im Feldversuch in verschiedenen Bodenklimatischen Zonen mit Teilstücken von 10 m^2 Grösse in drei- bis viermaliger Wiederholung nachgewiesen. Jedes Sterilisationsmittel wurde mindestens 5 Jahre lang geprüft.
(§2) Die Entwicklung der Perioden der Organogenese wird zytologischüberwacht. Die Behandlung von Pflanzen mit dem Sterilisationsmittel erfolgt am Anfang der fünften Periode der Organogenese nach Kupermann.
(§3) Mit dem Ahrenschiebe verwirklicht man die Isolierung von Hauptähren und anderen Stockwerken in Pergamentbeuteln. Bei Weizen und Tritikale werden Einzelisolatoren verwendet. Bei Roggen schliesst man je Ähre 5 bis 7 verschiedene nebeneinander befindliche Pflanzen unter einen gemeinsamen Isolator ein. Bei Hirse wird jede Rispe getrennt isoliert. Der Sterilitätsprozentsatz (X) für Weizen, Roggen, Tritikale und Hirse wird nach folgender Formel [formula] ermittelt.
(§4) Die Kornzahl in nicht isolierten ähren von Kontrollpflanzen wird bedingt für 100% Ansetzen bei freier Bestäubung angenommen.
(§5) Um zuverlässige Angaben zu erhalten, verwendet man 20 bis 25 Isolatoren jeder Wiederholung für Weisen und Tritikale, 10 bis 15 Gruppenisolatoren jeder Wiederholung für Roggen und Hirse.
Pflanzen von tetraploidem Roggen Sorte Belta werden in der V. Periode der Organogenese (nach Kupermann) mit einer 1%igen wässrigen Emulsion von N-(2-Dimethylamino- .äthyl)maleaminsäure, N-(3-Dimethylaminopropyl)maleaminsäure, N-Äthylmaleaminsäure, N-(2-Hydroxyäthyl)maleaminsäure bzw. Karbamoylmaleaminsäure behandelt. Die Emulsion enthält 0,5 Masse% Kalziumalkylbenzolsulfonat mit 12 bis 14 Kohlenstoffatomen und 0,01 Masso% Tetrahydrofuran. Der Verbrauch an Präparat beträgt 10 kg/ha. Die Prüfergebnisse sind in der Tabelle 5 dargestellt. […] Periode der Organogenese erhalten.

[2] = test system: Winterweizens Sorte Bezostaya 1; assay: Field test of pollen sterilisation, winter wheat Bezostaya 1; type: in vivo, Winterweizen; conditions: 2% aqueous emulsion, 16 kg/ha; for Prozentsatz der Sterilität / Anzahl von Körnern der Ähre bei freier Bestäubung / Anzahl von Körnern der Ähre im Isolator: period V of organogenesis; for Anzahl von Körnern der Ähre bei freier Bestäubung: free pollination; for Anzahl von Körnern der Ähre im Isolator: isolated ears; for Prozentsatz des Ansetzens von Körnern bei breier Bestäubung: period V, non-isolated control ears = 100%
Source text: Pflanzen des Winterweizens Sorte Bezostaya 1 werden in der V. Periode der Organogenese durch Zerstäubung einer 2%igen wässrigen Emulsion von N-(2-Dimethylaminoäthyl)-maleaminsäure, N-(3-Dimethylaminopropyl)-maleaminsäure, N-Äthylmaleaminsäure, N-(2-Hydroxyäthyl)-maleaminsäure, N-Karbamoylmaleaminsäure mit Hilfe deiner Rückspritze behandelt. Die Emulsion enthält 0,1 Masse% Kalziumalkylbenzolsulfonat mit 12 bis 14 Kohlenstoffatomen. Als Adjuvans führt man in die Emulsion 0,01 Masse% Tetrahydrofuran ein.
Der Verbrauch an Präparat beträgt 16 kg/ha. Als Kontrolle dienen Pflanzen, behandelt mit einem Verdünner ohne Sterilisationsmitteln.

Tritikale Sorte Prag 109 = assay: Field test of pollen sterilisation, triticale Prag 109; type: in vivo; conditions: 2% aqueous emulsion, 12 kg/ha
Source text: (§6) Jedes Sterilisationsmittel wurde mindestens 5 Jahre lang geprüft.
as §2, §3, §4, §5
V.Periode der Organogenese (nach Kupermann) mit einer 2%igen wässrigen Emulsion von N-(3-Dimethylaminopropyl) maleaminsäure, N-Karbamoylmaleaminsäure behandelt. Die Emulsion enthält 0,01 Masse% Tetrahydrofuran […] und 0,1 Masse% Kalziumalkylbenzolsulfonat mit 12 bis 14 Kohlensotffatomen. Der Verbrauch an Präparat beträgt 12 kg/ha. Als Kontrolle dienen Pflanzen, behandelt mit einem Verdünner ohne Sterilisationsmittel.

[3] = test system: Hirse Sorte Mironovskoe 94; assay: Field test of pollen sterilisation, millet Mironovskoe 94; type: in vivo; conditions: 1% aqueous emulsion, 8 kg/ha; for Prozentsatz der Sterilität / Anzahl von Körnern der Rispe bei freier Bestäubung / Anzahl von Körnern der Rispe im Isolator: period V of organogenesis; for Anzahl von Körnern der Rispe bei freier Bestäubung: free pollination; for Anzahl von Körnern der Rispe im Isolator: isolated panicles; for Prozentsatz des Ansetzens von Körnern bei freier Bestäubung: period V, non-isolated control = 100%
Source text: as §1, §2, §3, §4, §5
Pflanzen der Hirse Sorte Mironovskoe 94 werden in der V. Periode der Organogenese (nach Kupermann) mit einer 1%igen wässrigen Emulsion von N-(2-Dimethylaminoäthyl)maleaminsäure, N-(3-Dimethylaminopropyl)maleaminsäure, N-Äthylmaleaminsäure, N-(2-Hydroxyäthyl)maleaminsäure, N-Karbamoylmaleaminsäure behandelt. Die Emulsion enthält 0,01 Masse% Dimethylaulfoxid und 0,1 Masse% Kalziumalkylbenzolsulfonat mit 12 bis 14 Kohlenstoffatomen. Der Verbrauch an Präparat beträgt 8 kg/ha. Als Kontrolle dienen Pflanzen, behandelt mit einem Verdünner ohne Sterilisationsmittel. Die Prüfergebnisse sind in der Tabelle 12 dargestellt. […] Periode der Organogenese erhalten.

[4] = test system: diploidem Roggen Sorte Chulpan; assay: Field test of pollen sterilisation, diploid rye Chulpan; type: in vivo; conditions: 1% aqueous emulsion, 8 kg/ha; for Prozentsatz der Sterilität / Anzahl von Körnern der Ähre bei freier Bestäubung / Anzahl von Körnern der Ähre im Isolator: period V of organogenesis; for Anzahl von Körnern der Ähre bei freier Bestäubung: free pollination; for Anzahl von Körnern der Ähre im Isolator: isolated ears; for Prozentsatz des Ansetzens von Körnern bei freier Bestäubung: period V, non-isolated control ears = 100%
Source text: (§7) Mit dem Ahrenschiebe verwirklicht man die Isolierung von Hauptähren und anderen Stockwerken in Pergamentbeuteln. […] Bei Roggen schliesst man je Ähre 5 bis 7 verschiedene nebeneinander befindliche Pflanzen unter einen gemeinsamen Isolator ein. […] Der Sterilitätsprozentsatz (X) für Weizen, Roggen, Tritikale und Hirse wird nach folgender Formel [formula] ermittelt.
Die Emulsion enthält 0,01 Masse% Tetranydrofuran und 0,1 Masse% Kalziumalkylbenzolsulfonat mit 12 bis 14 Kohlenstoffatomen. Der Verbrauch an Präparat beträgt 8 kg/ha. Als Kontrolle dienen Pflanzen, behandelt mit einem Verdünner ohne Sterilisationsmittel.

[5] = test system: Sommerweizens Sorte Botanicheskaya 4; assay: Field test of pollen sterilisation, spring wheat Botanicheskaya 4; type: in vivo, Sommerweizen; conditions: 1% aqueous emulsion, 6 kg/ha; for Prozentsatz der Sterilität / Anzahl von Körnern der Ähre bei freier Bestäubung / Anzahl von Körnern der Ähre im Isolator: period V of organogenesis; for Anzahl von Körnern der Ähre bei freier Bestäubung: free pollination; for Anzahl von Körnern der Ähre im Isolator: isolated ears; for Prozentsatz des Ansetzens von Körnern bei freier Bestäubung: period V, non-isolated control ears = 100%
Source text: Pflanzen des Sommerweizens Sorte Botanicheskaya 4 werden in der V. Periode der Organogenese (nach Kupermann) mit einer 1%igen Wässrigen Emulsion von N-(2-Dimethyl-aminoäthyl)-maleaminsäure, N-(3-Dimethylaminopropyl)-maleaminsäure, N-Äthylmaleaminsäure, N-(2-Hydroxyäthyl)-maleaminsäure bzw. N-Karbamoylmaleaminsäure behandelt. Die Emulsion enthält 0,5 Masse% Kalziumalkylbenzolsulfonat mit 12 bis 14 Kohlenstoffatomen und 0,01 Masse% Dimethylsulfoxid als Adjuvans. Der Verbrauch an Präparat beträgt 6 kg/ha. Als Kontrolle dienen Pflanzen, behandelt mit einem Verdünner ohne Sterilisationsmittel.

[6] = test system: diploidem Roggen Sorte Talovskaya 12; assay: Field test of pollen sterilisation, diploid rye Talovskaya 12; type: in vivo; conditions: 1% aqueous emulsion, 6 kg/ha; for Prozentsatz der Sterilität / Anzahl von Körnern der Ähre bei freier Bestäubung / Anzahl von Körnern der Ähre im Isolator: period V of organogenesis; for Anzahl von Körnern der Ähre bei freier Bestäubung: free pollination; for Anzahl von Körnern der Ähre im Isolator: isolated ears; for Prozentsatz des Ansetzens von Körnern bei freier Bestäubung: period V, non-isolated control ears = 100%
Source text: as §7
Pflanzen von diploidem Roggen Sorte Talovskaya 12 werden in der V. Periode der Organogenese (nach Kupermann) mit einer 1%igen wässrigen Emulsion von N-(2-Di- methylaminoäthyl)-maleaminsäure, N-(3-Dimethylaminopropyl)-maleaminsäure, N-Äthylmaleaminsäure, N-(2-Hydroxyäthyl)maleaminsäure, N-Karbamoylmaleaminsäure behandelt. Die Emulsion enthält 0,01 Masse% Dodezylsulfat und 0,1 Masse% Kalziumalkylbenzolsulfonat mit 12 bis _14 Kohlenstoffatomen. Der Verbrauch an Präparat beträgt 6 kg/ha. Als Kontrolle dienen Pflanzen, behandelt mit einem Verdünner ohne Sterilisationsmittel.

[7] = test system: Sommerweizens Sorte Moskovskaya 35; assay: Field test of pollen sterilisation, spring wheat Moskovskaya 35; type: in vivo, Sommerweizen; conditions: 1% aqueous emulsion, 10 kg/ha; for Prozentsatz der Sterilität / Anzahl von Körnern der Ähre bei freier Bestäubung / Anzahl von Körnern der Ähre im Isolator: period V of organogenesis; for Anzahl von Körnern der Ähre bei freier Bestäubung: free pollination; for Anzahl von Körnern der Ähre im Isolator: isolated ears; for Prozentsatz des Ansetzens von Körnern bei freier Bestäubung: period V, non-isolated control ears = 100%
Source text: Pflanzen des Sommerweizens Sorte Moskovskaya 35 werden in V. Periode der Organogenese (nach Kupermann) mit einer 1%igen wässrigen Emulsion von N-(2-Dimethyl-aminoäthyl)-maleaminsäure, N-(3-Dimethylaminopropyl)-maleaminsäure, N-Äthylmaleaminsäure, N-(2-Hydroxyäthyl) maleaminsäure bzw. N-Karbamoylmaleaminsäure behandelt. Die Emulsion enthält 0,5 Masse% Kalziumalkylbenzolsulfonat mit 12 bis 14 Kohlenstoffatomen als Emulgierungsmittel und 0,01 Masse% Dimethylformamid als Adjuvans. Der Verbrauch an Präparat beträgt 10 kg/ha. Als Kontrolle dienen Pflanzen, behandelt mit einem Verdünner ohne Sterilisationsmittel.

[8] = test system: diploidem Roggen Sorte Voskhod 2; assay: Field test of pollen sterilisation, diploid rye Voskhod 2; type: in vivo; conditions: 1% aqueous emulsion, 10 kg/ha; for Prozentsatz der Sterilität / Anzahl von Körnern der Ähre bei freier Bestäubung / Anzahl von Körnern der Ähre im Isolator: period V of organogenesis; for Anzahl von Körnern der Ähre bei freier Bestäubung: free pollination; for Anzahl von Körnern der Ähre im Isolator: isolated ears; for Prozentsatz des Ansetzens von Körnern bei freier Bestäubung: period V, non-isolated control ears = 100%
Source text: Die Emulsion enthält 0,1 Masse% Kalziumalkylbenzolsulfonat und 0,01 Masse% Dimethylformamid. Der Verbrauch an Präparat beträgt 10 kg/ha. Als Kontrolle dienen Pflanzen, behandelt mit einem Lösungsmittel ohne Sterilisationsmittel.

[9] = test system: tetraploidem Roggen Sorte Ukrainskaya tetra; assay: Field test of pollen sterilisation, tetraploid rye Ukrainskaya tetra; type: in vivo; conditions: 1% aqueous emulsion, 6 kg/ha; for Prozentsatz der Sterilität / Anzahl von Körnern der Ähre bei freier Bestäubung / Anzahl von Körnern der Ähre im Isolator: period V of organogenesis; for Anzahl von Körnern der Ähre bei freier Bestäubung: free pollination; for Anzahl von Körnern der Ähre im Isolator: isolated ears; for Prozentsatz des Ansetzens von Körnern bei freier Bestäubung: period V, non-isolated control ears = 100%
Source text: as §6, §2, §3, §4, §5
Pflanzen von tetraploidem Roggen Sorte Ukrainskaya tetra werden in der V. Periode der Organogenese (nach Kupermann) mit einer 1%igen wässrigen Emulsion von N-(2-Dimethylaminoäthyl)maleaminsäure, N-(3-Dimethyl-aminopropu)maleaminsäure bzw. N-Karbamoylmaleaminsäure behandelt. Die Emulsion enthält 0,1 Masse% Kaliumalkylbenzolsulfonat mit 12 bis 14 Kohlenstoffatomen und 0,01 Masse% Dodezylsulfat. Der Verbrauch an Präparat beträgt 6 kg/ha. Als Kontrolle dienen Pflanzen, behandelt mit einem Verdünner ohne Sterilisationsmittel. Die Prüfergebnisse sind in der Tabelle 6 dargestellt.

[10] = Toxicity test in animals (LD50); conditions: in vivo; animal test, per kg animal weight; species and route not given
Source text: Alle erfindungsgemässen N-substituierten Maleaminsäuren, welche als Sterilisationsmittel zur Verwendung kommen, waren auf die Toxizität im Tierversuch geprüft. Die Prüfergebnisse haben ergeben, dass die angegebenen Verbindungen von schwacher oder mittlerer Toxizität sind.

[11] = test system: Winterweizens Sorte Mir.onovskaya 808; assay: Field test of pollen sterilisation (gametocidal activity), winter wheat Mironovskaya 808; type: in vivo, Winterweizen; conditions: 2% aqueous emulsion, 20 kg/ha; for Prozentsatz der Sterilität / Anzahl von Körnern der Ähre bei freier Bestäubung / Anzahl von Körnern der Ähre im Isolator: period V of organogenesis; for Anzahl von Körnern der Ähre bei freier Bestäubung: free pollination; for Anzahl von Körnern der Ähre im Isolator: isolated ears; for Prozentsatz des Ansetzens von Körnern bei freier Bestäubung: period V, non-isolated control ears = 100%
Source text: Als Emulgierungsmittel wird 0,1 Masse% Kalziumalkylbenzolsulfonat mit 12 bis 14 Kohlenstoffatomen hinzugefügt. Als Adjuvans fährt man in die Emulsion 0,01 Masse% Dimethylsulfoxid ein. Der Verbrauch an Präparat beträgt 20 kg/ha. Als Kontrolle dienen Pflanzen, behandelt mit einem Verdünner ohne Sterilisationsmittel.

SMILES: CN(C)CCCNC(=O)/C=C\C(=O)O [Beispiel 2, N-(3-Dimethylaminopropyl)-maleaminsäure]
- Prozentsatz der Sterilität [1]: 100,0%
- Anzahl von Körnern der Ähre bei freier Bestäubung [1]: 47,7
- Anzahl von Körnern der Ähre im Isolator [1]: 0,0
- Prozentsatz des Ansetzens von Körnern bei freier Bestäubung [1]: 87,0%
- Prozentsatz der Sterilität [2]: 100,0%
- Anzahl von Körnern der Ähre bei freier Bestäubung [2]: 40,2
- Anzahl von Körnern der Ähre im Isolator [2]: 0,0
- Prozentsatz des Ansetzens von Körnern bei breier Bestäubung [2]: 93,7%
- Prozentsatz der Sterilität (Tritikale Sorte Prag 109; period V of organogenesis): 100,0%
- Anzahl von Körnern der Ähre bei freier Bestäubung (Tritikale Sorte Prag 109; period V of organogenesis, free pollination): 40,3
- Anzahl von Körnern der Ähre im Isolator (Tritikale Sorte Prag 109; period V of organogenesis, isolated ears): 0,0
- Prozentsatz des Ansetzens von Körnern bei freier Bestäubung (Tritikale Sorte Prag 109; period V, non-isolated control ears = 100%): 88,0%
- Prozentsatz der Sterilität [3]: 100,0%
- Anzahl von Körnern der Rispe bei freier Bestäubung [3]: 214,5
- Anzahl von Körnern der Rispe im Isolator [3]: 0,0
- Prozentsatz des Ansetzens von Körnern bei freier Bestäubung [3]: 94,4%
- Prozentsatz der Sterilität [4]: 100,0%
- Anzahl von Körnern der Ähre bei freier Bestäubung [4]: 51,6
- Anzahl von Körnern der Ähre im Isolator [4]: 0,0
- Prozentsatz des Ansetzens von Körnern bei freier Bestäubung [4]: 90,8%
- Prozentsatz der Sterilität [5]: 99,7%
- Anzahl von Körnern der Ähre bei freier Bestäubung [5]: 27,7
- Anzahl von Körnern der Ähre im Isolator [5]: 0,1
- Prozentsatz des Ansetzens von Körnern bei freier Bestäubung [5]: 92,0%
- Prozentsatz der Sterilität [6]: 100,0%
- Anzahl von Körnern der Ähre bei freier Bestäubung [6]: 48,0
- Anzahl von Körnern der Ähre im Isolator [6]: 0,0
- Prozentsatz des Ansetzens von Körnern bei freier Bestäubung [6]: 85,4%
- Prozentsatz der Sterilität [7]: 98,9%
- Anzahl von Körnern der Ähre bei freier Bestäubung [7]: 27,0
- Anzahl von Körnern der Ähre im Isolator [7]: 0,3
- Prozentsatz des Ansetzens von Körnern bei freier Bestäubung [7]: 98,2%
- Prozentsatz der Sterilität [8]: 100,0%
- Anzahl von Körnern der Ähre bei freier Bestäubung [8]: 48,0
- Anzahl von Körnern der Ähre im Isolator [8]: 0,0
- Prozentsatz des Ansetzens von Körnern bei freier Bestäubung [8]: 87,0%
- Prozentsatz der Sterilität [9]: 100,0%
- Anzahl von Körnern der Ähre bei freier Bestäubung [9]: 42,6
- Anzahl von Körnern der Ähre im Isolator [9]: 0,0
- Prozentsatz des Ansetzens von Körnern bei freier Bestäubung [9]: 95,1%
- LD50 [10]: > 10000 mg/kg
- Prozentsatz der Sterilität [11]: 99,8%
- Anzahl von Körnern der Ähre bei freier Bestäubung [11]: 41,5
- Anzahl von Körnern der Ähre im Isolator [11]: 0,1
- Prozentsatz des Ansetzens von Körnern bei freier Bestäubung [11]: 97,4%

SMILES: CN(C)CCNC(=O)/C=C\C(=O)O [Beispiel 1, N-(2-Dimethylaminoäthyl)-maleaminsäure]
- Prozentsatz der Sterilität [1]: 100,0%
- Anzahl von Körnern der Ähre bei freier Bestäubung [1]: 48,2
- Anzahl von Körnern der Ähre im Isolator [1]: 0,0
- Prozentsatz des Ansetzens von Körnern bei freier Bestäubung [1]: 88,2%
- Prozentsatz der Sterilität [2]: 100,0%
- Anzahl von Körnern der Ähre bei freier Bestäubung [2]: 39,7
- Anzahl von Körnern der Ähre im Isolator [2]: 0,0
- Prozentsatz des Ansetzens von Körnern bei breier Bestäubung [2]: 92,5%
- Prozentsatz der Sterilität [3]: 100,0%
- Anzahl von Körnern der Rispe bei freier Bestäubung [3]: 224,8
- Anzahl von Körnern der Rispe im Isolator [3]: 0,0
- Prozentsatz des Ansetzens von Körnern bei freier Bestäubung [3]: 98,9%
- Prozentsatz der Sterilität [4]: 99,6%
- Anzahl von Körnern der Ähre bei freier Bestäubung [4]: 50,2
- Anzahl von Körnern der Ähre im Isolator [4]: 0,2
- Prozentsatz des Ansetzens von Körnern bei freier Bestäubung [4]: 88,4%
- Prozentsatz der Sterilität [5]: 97,5%
- Anzahl von Körnern der Ähre bei freier Bestäubung [5]: 29,8
- Anzahl von Körnern der Ähre im Isolator [5]: 0,7
- Prozentsatz des Ansetzens von Körnern bei freier Bestäubung [5]: 99,0%
- Prozentsatz der Sterilität [6]: 99,5%
- Anzahl von Körnern der Ähre bei freier Bestäubung [6]: 51,2
- Anzahl von Körnern der Ähre im Isolator [6]: 0,2
- Prozentsatz des Ansetzens von Körnern bei freier Bestäubung [6]: 91,1%
- Prozentsatz der Sterilität [7]: 99,3%
- Anzahl von Körnern der Ähre bei freier Bestäubung [7]: 26,8
- Anzahl von Körnern der Ähre im Isolator [7]: 0,2
- Prozentsatz des Ansetzens von Körnern bei freier Bestäubung [7]: 97,4%
- Prozentsatz der Sterilität [8]: 100,0%
- Anzahl von Körnern der Ähre bei freier Bestäubung [8]: 51,2
- Anzahl von Körnern der Ähre im Isolator [8]: 0,0
- Prozentsatz des Ansetzens von Körnern bei freier Bestäubung [8]: 92,7%
- Prozentsatz der Sterilität [9]: 100,0%
- Anzahl von Körnern der Ähre bei freier Bestäubung [9]: 40,1
- Anzahl von Körnern der Ähre im Isolator [9]: 0,0
- Prozentsatz des Ansetzens von Körnern bei freier Bestäubung [9]: 89,5%
- LD50 [10]: 2500 mg/kg
- Prozentsatz der Sterilität [11]: 99,8%
- Anzahl von Körnern der Ähre bei freier Bestäubung [11]: 38,3
- Anzahl von Körnern der Ähre im Isolator [11]: 0,1
- Prozentsatz des Ansetzens von Körnern bei freier Bestäubung [11]: 89,9%
